Assay results published in PMC7736581, “Activation of the IRE1 RNase through remodeling of the kinase front pocket by ATP-competitive ligands” (Nature Communications, 2020).

Columns and labels:
Assay in all cases: biochemical
Parameters in all cases: Invitrogen kinase panel: Z'Lyte activity (ATP at Km) or LanthaScreen competitive ATP-site binding, percent inhibition
[1] = molecular target: CDK7/cyclinH (Homo sapiens, UniProt P50613)
[2] = molecular target: LIMK1 (Homo sapiens, UniProt P53667)
[3] = molecular target: T1, PI3K-G (Homo sapiens, UniProt P48736)
T1 construct: gene PIK3CG
T1 sequence (P48736 whole entry): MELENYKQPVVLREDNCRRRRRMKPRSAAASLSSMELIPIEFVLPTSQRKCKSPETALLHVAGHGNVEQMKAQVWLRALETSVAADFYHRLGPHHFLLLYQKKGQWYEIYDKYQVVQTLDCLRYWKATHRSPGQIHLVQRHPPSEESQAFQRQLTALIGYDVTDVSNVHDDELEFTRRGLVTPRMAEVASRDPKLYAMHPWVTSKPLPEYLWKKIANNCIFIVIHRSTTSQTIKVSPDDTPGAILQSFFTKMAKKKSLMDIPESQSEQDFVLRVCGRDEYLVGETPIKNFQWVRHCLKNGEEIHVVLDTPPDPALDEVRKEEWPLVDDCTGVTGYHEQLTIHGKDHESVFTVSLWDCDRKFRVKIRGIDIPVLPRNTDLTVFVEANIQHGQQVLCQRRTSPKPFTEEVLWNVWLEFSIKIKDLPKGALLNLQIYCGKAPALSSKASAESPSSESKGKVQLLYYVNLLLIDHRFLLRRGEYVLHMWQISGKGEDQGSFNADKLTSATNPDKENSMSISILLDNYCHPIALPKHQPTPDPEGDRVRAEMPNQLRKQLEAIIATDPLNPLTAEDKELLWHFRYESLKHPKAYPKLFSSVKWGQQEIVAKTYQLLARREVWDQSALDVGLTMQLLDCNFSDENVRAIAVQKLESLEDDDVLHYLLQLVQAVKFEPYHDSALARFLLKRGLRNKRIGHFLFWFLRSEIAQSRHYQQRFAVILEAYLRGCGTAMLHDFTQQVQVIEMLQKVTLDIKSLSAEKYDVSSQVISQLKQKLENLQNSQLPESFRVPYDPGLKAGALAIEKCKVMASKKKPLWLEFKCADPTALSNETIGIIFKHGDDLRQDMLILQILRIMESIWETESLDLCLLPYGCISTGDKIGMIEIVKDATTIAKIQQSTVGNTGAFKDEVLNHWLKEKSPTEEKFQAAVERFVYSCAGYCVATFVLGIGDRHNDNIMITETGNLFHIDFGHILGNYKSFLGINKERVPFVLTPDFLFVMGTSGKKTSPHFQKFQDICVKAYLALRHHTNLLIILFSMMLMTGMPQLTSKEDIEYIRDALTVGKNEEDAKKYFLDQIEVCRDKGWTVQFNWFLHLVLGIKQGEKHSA

[4] = molecular target: T2, MSSK1 (Homo sapiens, UniProt Q9UPE1)
T2 construct: gene SRPK3
T2 sequence (Q9UPE1 whole entry): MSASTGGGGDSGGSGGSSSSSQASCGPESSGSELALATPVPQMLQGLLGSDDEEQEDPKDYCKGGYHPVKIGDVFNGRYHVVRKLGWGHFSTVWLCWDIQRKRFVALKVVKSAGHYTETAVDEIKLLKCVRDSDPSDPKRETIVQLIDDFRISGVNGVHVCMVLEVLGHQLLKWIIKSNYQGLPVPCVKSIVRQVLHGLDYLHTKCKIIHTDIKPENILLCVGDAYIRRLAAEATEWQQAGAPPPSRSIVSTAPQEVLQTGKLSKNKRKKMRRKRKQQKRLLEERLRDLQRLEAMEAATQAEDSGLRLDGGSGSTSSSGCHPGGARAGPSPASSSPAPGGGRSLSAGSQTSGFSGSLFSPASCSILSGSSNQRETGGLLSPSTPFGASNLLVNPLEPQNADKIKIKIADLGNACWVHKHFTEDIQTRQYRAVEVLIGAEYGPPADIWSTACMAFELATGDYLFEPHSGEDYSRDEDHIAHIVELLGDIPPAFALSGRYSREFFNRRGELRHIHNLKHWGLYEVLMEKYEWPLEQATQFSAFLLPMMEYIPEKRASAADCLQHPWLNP

[5] = molecular target: T3, DCAMKL2 (Homo sapiens, UniProt Q8N568)
T3 construct: gene DCLK2
T3 sequence (Q8N568 whole entry): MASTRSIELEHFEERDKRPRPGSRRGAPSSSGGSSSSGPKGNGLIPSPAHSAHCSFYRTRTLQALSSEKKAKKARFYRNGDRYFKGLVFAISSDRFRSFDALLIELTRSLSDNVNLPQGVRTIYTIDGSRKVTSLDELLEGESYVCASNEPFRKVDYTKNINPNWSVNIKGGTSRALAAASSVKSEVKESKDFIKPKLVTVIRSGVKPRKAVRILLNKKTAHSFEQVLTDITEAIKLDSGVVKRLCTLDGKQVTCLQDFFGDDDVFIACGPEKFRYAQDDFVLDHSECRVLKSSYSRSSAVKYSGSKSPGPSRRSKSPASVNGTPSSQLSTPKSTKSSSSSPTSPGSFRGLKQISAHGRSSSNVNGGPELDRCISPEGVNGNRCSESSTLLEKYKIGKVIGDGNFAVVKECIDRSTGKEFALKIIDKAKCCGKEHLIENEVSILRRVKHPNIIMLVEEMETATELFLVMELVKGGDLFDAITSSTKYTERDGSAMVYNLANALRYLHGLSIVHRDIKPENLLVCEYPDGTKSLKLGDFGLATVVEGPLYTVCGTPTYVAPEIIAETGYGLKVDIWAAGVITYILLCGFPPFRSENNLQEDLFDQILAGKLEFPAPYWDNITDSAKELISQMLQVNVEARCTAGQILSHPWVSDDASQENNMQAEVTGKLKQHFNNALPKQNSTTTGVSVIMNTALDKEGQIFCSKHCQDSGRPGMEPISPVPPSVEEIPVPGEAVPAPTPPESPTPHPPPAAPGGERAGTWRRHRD

[6] = molecular target: EphA8 (Homo sapiens, UniProt P29322)
[7] = molecular target: PIM1 (Homo sapiens, UniProt P11309)
[8] = molecular target: T4, ARK5 (Homo sapiens, UniProt O60285)
T4 construct: gene NUAK1

[9] = molecular target: T5, IKK_alpha (Homo sapiens, UniProt O15111)
T5 construct: gene CHUK

[10] = molecular target: Fes (Homo sapiens, UniProt P07332)
[11] = molecular target: T6, ASK1 (Homo sapiens, UniProt Q99683)
T6 construct: gene MAP3K5

[12] = molecular target: T7, MST3 (Homo sapiens, UniProt Q9Y6E0)
T7 construct: gene STK24
T7 sequence (Q9Y6E0 whole entry): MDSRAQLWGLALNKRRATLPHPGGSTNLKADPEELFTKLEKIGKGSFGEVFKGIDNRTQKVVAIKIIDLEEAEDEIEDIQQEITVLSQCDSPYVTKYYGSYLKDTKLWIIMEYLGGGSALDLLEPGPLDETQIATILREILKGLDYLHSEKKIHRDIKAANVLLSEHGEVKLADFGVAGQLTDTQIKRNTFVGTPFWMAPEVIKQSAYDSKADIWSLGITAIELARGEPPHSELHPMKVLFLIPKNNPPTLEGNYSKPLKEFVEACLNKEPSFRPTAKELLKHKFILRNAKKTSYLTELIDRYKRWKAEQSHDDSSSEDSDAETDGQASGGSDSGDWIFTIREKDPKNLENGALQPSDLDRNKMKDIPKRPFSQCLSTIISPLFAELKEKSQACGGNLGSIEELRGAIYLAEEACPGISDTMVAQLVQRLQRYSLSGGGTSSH

[13] = molecular target: DYRK1A (Homo sapiens, UniProt Q13627)
[14] = molecular target: Ret (Homo sapiens, UniProt P07949)
[15] = molecular target: SRPK1 (Homo sapiens, UniProt Q96SB4)
[16] = molecular target: T8, MLK2 (Homo sapiens, UniProt Q02779)
T8 construct: gene MAP3K10

[17] = molecular target: CLK4 (Homo sapiens, UniProt Q9HAZ1)
CLK4, sequence (Q9HAZ1 whole entry): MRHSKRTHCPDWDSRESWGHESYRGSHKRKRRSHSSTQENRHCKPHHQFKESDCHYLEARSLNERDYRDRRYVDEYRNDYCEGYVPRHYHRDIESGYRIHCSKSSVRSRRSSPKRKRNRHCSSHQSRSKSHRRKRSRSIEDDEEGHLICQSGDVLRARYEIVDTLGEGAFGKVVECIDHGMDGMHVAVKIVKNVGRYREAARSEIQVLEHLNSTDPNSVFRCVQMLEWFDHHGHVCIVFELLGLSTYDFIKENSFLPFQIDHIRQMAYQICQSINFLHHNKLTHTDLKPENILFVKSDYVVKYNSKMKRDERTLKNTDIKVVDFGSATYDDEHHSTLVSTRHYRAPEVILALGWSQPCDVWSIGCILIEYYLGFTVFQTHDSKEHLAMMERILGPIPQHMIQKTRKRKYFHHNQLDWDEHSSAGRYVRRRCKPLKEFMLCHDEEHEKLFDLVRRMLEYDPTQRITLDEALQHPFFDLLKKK

[18] = molecular target: T9, CaMKII_beta (Homo sapiens, UniProt Q13554)
T9 construct: gene CAMK2B
T9 sequence (Q13554 whole entry): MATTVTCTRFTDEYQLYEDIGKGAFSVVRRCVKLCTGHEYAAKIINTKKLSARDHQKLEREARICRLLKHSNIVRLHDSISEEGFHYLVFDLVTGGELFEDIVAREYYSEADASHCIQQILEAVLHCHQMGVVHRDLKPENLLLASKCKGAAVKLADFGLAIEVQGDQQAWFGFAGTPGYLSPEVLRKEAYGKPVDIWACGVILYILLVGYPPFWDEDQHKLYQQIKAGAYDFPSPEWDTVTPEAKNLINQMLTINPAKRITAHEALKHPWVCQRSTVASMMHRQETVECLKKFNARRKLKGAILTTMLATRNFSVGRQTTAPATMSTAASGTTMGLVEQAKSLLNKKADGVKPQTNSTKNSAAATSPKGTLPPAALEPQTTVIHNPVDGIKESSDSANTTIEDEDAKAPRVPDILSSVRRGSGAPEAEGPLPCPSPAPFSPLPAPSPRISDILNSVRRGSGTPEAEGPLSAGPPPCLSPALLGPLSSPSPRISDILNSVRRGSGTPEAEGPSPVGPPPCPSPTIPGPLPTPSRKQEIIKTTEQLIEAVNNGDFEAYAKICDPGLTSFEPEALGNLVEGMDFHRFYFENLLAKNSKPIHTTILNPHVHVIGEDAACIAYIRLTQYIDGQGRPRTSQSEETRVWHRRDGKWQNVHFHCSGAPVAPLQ

[19] = molecular target: EphB3 (Homo sapiens, UniProt P54753)
EphB3, sequence (P54753 whole entry): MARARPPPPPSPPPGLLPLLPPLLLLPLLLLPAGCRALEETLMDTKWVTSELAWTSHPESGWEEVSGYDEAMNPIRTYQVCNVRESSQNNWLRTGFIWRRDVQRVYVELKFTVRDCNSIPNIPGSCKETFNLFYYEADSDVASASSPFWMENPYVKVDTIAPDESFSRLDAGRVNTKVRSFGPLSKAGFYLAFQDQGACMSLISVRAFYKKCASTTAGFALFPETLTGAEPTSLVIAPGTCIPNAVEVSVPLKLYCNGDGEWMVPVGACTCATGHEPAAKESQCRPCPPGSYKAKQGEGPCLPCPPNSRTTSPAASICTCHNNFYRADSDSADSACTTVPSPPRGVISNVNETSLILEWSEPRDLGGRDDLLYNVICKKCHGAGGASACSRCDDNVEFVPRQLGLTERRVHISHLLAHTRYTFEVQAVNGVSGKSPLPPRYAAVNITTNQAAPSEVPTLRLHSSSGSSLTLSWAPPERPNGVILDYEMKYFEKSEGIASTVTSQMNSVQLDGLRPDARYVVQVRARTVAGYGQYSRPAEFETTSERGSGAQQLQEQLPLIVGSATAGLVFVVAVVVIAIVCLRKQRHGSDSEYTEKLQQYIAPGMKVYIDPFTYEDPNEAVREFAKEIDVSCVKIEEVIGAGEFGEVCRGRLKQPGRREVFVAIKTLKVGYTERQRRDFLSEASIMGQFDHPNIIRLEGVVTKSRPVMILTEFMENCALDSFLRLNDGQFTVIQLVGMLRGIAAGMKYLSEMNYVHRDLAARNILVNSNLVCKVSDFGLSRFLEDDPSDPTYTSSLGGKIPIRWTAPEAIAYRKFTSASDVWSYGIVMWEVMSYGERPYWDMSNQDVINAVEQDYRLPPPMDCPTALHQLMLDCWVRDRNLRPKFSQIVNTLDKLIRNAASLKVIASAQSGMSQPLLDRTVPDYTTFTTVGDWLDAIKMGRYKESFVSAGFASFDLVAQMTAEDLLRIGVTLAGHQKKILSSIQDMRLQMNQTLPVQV

[20] = molecular target: ROCK2 (Homo sapiens, UniProt O75116)
[21] = molecular target: RIPK2 (Homo sapiens, UniProt O43353)
[22] = molecular target: T10, PKG1_alpha (Homo sapiens, UniProt Q13976)
T10 construct: gene PRKG1; isoform alpha

[23] = molecular target: T11, TAO2 (Homo sapiens, UniProt Q9UL54)
T11 construct: gene TAOK2

[24] = molecular target: Frk (Homo sapiens, UniProt P42685)

Row | SMILES | inhibition at 1 µM [1] [%] | inhibition at 1 µM [2] [%] | inhibition at 1 µM [3] [%] | inhibition at 1 µM [4] [%] | inhibition at 1 µM [5] [%] | inhibition at 1 µM [6] [%] | inhibition at 1 µM [7] [%] | inhibition at 1 µM [8] [%] | inhibition at 1 µM [9] [%] | inhibition at 1 µM [10] [%] | inhibition at 1 µM [11] [%] | inhibition at 1 µM [12] [%] | inhibition at 1 µM [13] [%] | inhibition at 1 µM [14] [%] | inhibition at 1 µM [15] [%] | inhibition at 1 µM [16] [%] | inhibition at 1 µM [17] [%] | inhibition at 1 µM [18] [%] | inhibition at 1 µM [19] [%] | inhibition at 1 µM [20] [%] | also measured
1 | CCOC(=O)Nc1cccc2c(Oc3ncccc3-c3ccnc(N[C@H]4CCCNC4)n3)c(C)ccc12 [G-1749] | 4.5 | 4.5 | 16 | -1.5 | 3 | 1.5 | -5.5 | 12 | -3.5 | 5 | -4 | -2 | 4 | 10 | 6.5 | 0.5 | 10.5 | -2 | 3 | 1 | inhibition at 1 µM [21]: 13.5%; inhibition at 1 µM [22]: 1%; inhibition at 1 µM [23]: 72.5%; inhibition at 1 µM [24]: 10.5%
2 | CC#CC(=O)Nc1cccc2c(Oc3ncccc3-c3ccnc(N[C@H]4CCCNC4)n3)c(C)ccc12 [G-7658] | 7.5 | 15 | -7 | 7 | 2 | 6.5 | -6 | 8 | -2 | 3.5 | 2 | -8.5 | 2.5 | 8 | 5 | 4 | 6 | 0.5 | 4.5 | -0.5 | inhibition at 1 µM [21]: 27.5%; inhibition at 1 µM [22]: 3.5%; inhibition at 1 µM [23]: 74%; inhibition at 1 µM [24]: 1.5%
